From patent publication US10543223B2, “Mannose derivatives useful for treating pathologies associated with adherent E. coli” (ENTEROME, priority 2015, dated 2020)
Converted amounts (≈) assume the structure as drawn.

Tests used:
[1] = Stability test in 0.1 M HCl (anomerization followed by 1H NMR); format: physicochemical; settings: for isomerization to the β-mannose derivative under acidic conditions: samples at t=0, 1 h, 2 h and 8 h, 1H NMR in D2O
Description: Compound 6 of WO 2014/016361 was dissolved in 0.1 M HCl and sample were freeze dried at t=0, 1 h, 2 h and 8 h (see FIG. 10). […] Indeed, under the acidic conditions, an equimolar α/β mixture at T=0 anomerize to a 1/3 α/β mixture at T=8 h.

[2] = test system: AIEC strain LF82; assay: Adhesion assay of AIEC LF82 strain on intestinal epithelial cells T84 (pre- and post-incubation); format: cell-based, E. coli; settings: pre-incubation (10 μM) and post-incubation (50 μM) protocols
Description: E. coli strain LF82 isolated from an ileal biopsy of a CD patient was used as the AIEC reference strain. Bacteria were grown overnight at 37° C. in Luria-Bertani (LB) broth, and a bacterial suspension was prepared at a concentration of 1.5×10^8 bacteria/mL in phosphate buffer saline (PBS) for adhesion assays. The human intestinal cell line T84, purchased from American Type Culture Collection (ATCC, CCL-248), was maintained in an atmosphere containing 5% CO2 at 37° C. in the culture medium recommended by ATCC. T84 cells were seeded in 48-well tissue culture plates at a density of 1.5×10^5 cells/well and incubated at 37° C. for 48 h.
AIEC reference strain LF82 was incubated for 1 h with HM or thiazole-bearing mannosides at final concentrations of 0.1, 1, or 10 μM, then bacteria/mannosides solution were incubated with T84 cells in order to have a multiplicity of infection (MOI) of 10 bacteria per cell (1.5×10^6 bacteria/well) for 3 h with. Effects of mannoside treatment were compared with HM. Monolayers were washed three times with PBS and lysed with 1% Triton X-100 (Sigma) in deionized water. Samples were diluted and plated onto LB agar plates to determine the number of colony-forming units (CFU). […]

[3] = test system: uropathogenic E. coli strain UTI89; assay: Hemagglutination inhibition assay, guinea pig erythrocytes, E. coli strain UTI89; format: cell-based; settings: for MIC: Escherichia coli, read-out: minimal inhibitory concentration (MIC) / inhibition titer of haemagglutination; for inhibition of UTI89-induced hemagglutination (in words): FIG. 1
Description: Interaction of E. coli FimH adhesins with the glycocalyx of guinea pig erythrocytes forms a crosslinked network in the wells. Glycoconjugates, added in a 2-fold dilution series, prevent the agglutination reaction. The inhibition titer is defined as the lowest concentration of the glycoconjugate at which hemagglutination is still inhibited. Several strains of E. coli were grown statically overnight in LB at 37° C., washed three times in ice-cold phosphate-buffered saline, and redissolved. A 2-fold dilution of glycoconjugates with a starting concentration of 1 mM was prepared in 25 μL of PBS with 10% of DMSO. Importantly, the pipet tip was changed at every dilution step to avoid carry-over. Next, the bacterial solution (25 μL) was added to the 2-fold dilution series of the compound. Finally, 50 μL of guinea pig red blood cells, washed and diluted in the buffer to 5% of the blood volume, was added to reach 100 μL. The plates were left on ice for one night before read-out.
Inhibition of E. coli Strain UTI89 Isolated from Patient with Urinary Tract Infection.
The anti-adhesive capacity of the inhibitors was evaluated against ten E. coli strains isolated from CD patients, urinary tract infections, and hip prosthesis infections.

[4] = biological target: T1, FimH lectin domain (residues 1-158) from E. coli strain UTI89 (Escherichia coli, UniProt Q1R2J4); assay: Isothermal titration calorimetry of FimH lectin domain; format: binding
T1 construct: FimH lectin domain (residues 1-158) from E. coli strain UTI89; made in house
Description: The recombinantly expressed FimH lectin domain (residues 1-158) from E. coli strain UTI89 was purified as described previously by Wellens et al. The FimH protein solution was put into the measurement cell (1452 μl) of a VP-ITC microcalorimeter (Malvern), at a concentration of 11.83 μM in the ITC working buffer (20 mM Na-Hepes at pH 7.4 and 150 mM NaCl). Compound 3c at 100 μM concentration was titrated into the FimH solution using 38 injections of 7 μl, leading to 38 heat peaks measured in μcal/sec (FIG. 12). The heat peaks were integrated (kCal/mole of injectant) to be presented in an enthalpogram with 38 data points (FIG. 12), used for the fitting to the model of one kind of binding sites (Microcal ITC Origin software) in order to derive the affinity (K) and the stoichiometry (N) of the interaction (FIG. 13). Using the constant absolute temperature (T) of the experiment, the entropic contribution ΔS was calculated (FIG. 13).

[5] = Faeces concentrations and recovery after IV and PO administration to rats; format: in vivo, Sprague Dawley rats; settings: Sprague Dawley, rat, faeces, po, 10 mg/kg, PO 10 mg/kg, 0-24 h, mean of 3 rats; read-out: Recovery in faeces, mean (quantity found in faeces out of the administered quantity)
Description: Plasma and faeces concentrations after administration of Compound 1b and for compound 13 of WO 2014/016361 at 1 mg/kg by intravenous route and 10 mg/kg by oral route to Sprague Dawley rats Blank rat faeces are homogenized with 3 volumes of UHQ water until obtention of a paste. Then 100 μL of the homogenate are spiked with the molecules and precipitated with 300 μL of acetonitrile. The concentration ranges tested are: • 0.5 ng/mL to 1000 ng/mL for plasma, • 4 to 2000 ng/g for faeces, corresponding to 1 to 500 ng/mL of faeces homogenate. 3. In-Life Part After administration, the animals are placed in individual metabolic cages in order to collect faeces samples during 24 hours. Faeces samples are collected over the 24 hours of the experiment. They are precisely weighed and 3 volumes of UHQ water are added. The mixture is homogeneized until obtention of a paste. Then 100 μL of the homogenate are taken and extracted with 300 μL of Acetonitrile. Analysis is performed using LC-MS/MS determination according to previous analytical test results.

[6] = test system: cystitis murine model; settings: Wellens et al, 2008; cited from earlier work
[7] = test system: AIEC; settings: in vivo; cited from earlier work

**Q.** Which α/β mixture ratio ([1]; T=8 h, equimolar α/β mixture at T=0) does the source give for `CC(=O)c1cnc(N[C@H]2O[C@H](CO)[C@@H](O)[C@H](O)[C@@H]2O)s1` [6 of WO 2014/016361] here?
**A.** 1/3

**Q.** And the “isomerization to the β-mannose derivative under acidic conditions” value [1]?
**A.** isomerizes to the corresponding β-mannose derivative

**Q.** For `CC(=O)c1cnc(C[C@H]2O[C@H](CO)[C@@H](O)[C@H](O)[C@@H]2O)s1` [Compound 1a, 5-acetyl-2-((α-D-mannopyranos-1-yl)methyl)thiazole], which “isomerization to the β-mannose derivative under acidic conditions” value [1] is on record?
**A.** does not isomerize

**Q.** For `CC(=O)c1cnc(SC[C@H]2O[C@H](CO)[C@@H](O)[C@H](O)[C@@H]2O)s1` [Compound 2b, 5-acetyl-2-((α-D-mannopyranos-1-yl)methylthioxy)thiazole], which “potency to inhibit attachment of LF82 to T84 cells compared with heptylmannoside” value [2] is on record?
**A.** more potent than the reference compound heptylmannoside

**Q.** What does the source list for `CC(=O)c1cnc(NC[C@H]2O[C@H](CO)[C@@H](O)[C@H](O)[C@@H]2O)s1` [Compound 2c]?
**A.** potency relative to HM at disrupting E. coli promoted hemagglutination ([3]; E. coli UTI89): 8 fold; MIC [3]: 0.098 µM (≈ 0.0312 µg/mL); inhibition of UTI89-induced hemagglutination (in words) [3]: potent inhibitors

**Q.** With `Cc1nc(-c2cnccn2)sc1C(=O)c1cnc(NC[C@H]2O[C@H](CO)[C@@H](O)[C@H](O)[C@@H]2O)s1` [Compound 2d, 5-(4-methyl-2-(pyrazin-2-yl)thiazol-5-ylcarbonyl)-2-(((α-D-mannopyranosyl)methyl)amino)-thiazole] as the compound, how does the MIC [3] read?
**A.** 3.12 µM (≈ 1.5 µg/mL)

**Q.** And the “inhibition of UTI89-induced hemagglutination (in words)” value [3]?
**A.** potent inhibitors

**Q.** For `Cc1nc(NCc2cn(CC3OC(CO)C(O)C(O)C3O)nn2)sc1C(=O)c1cnc(NCC2OC(CO)C(O)C(O)C2O)s1` (centres unmarked) [Compound 3c], which Kd [4] is on record?
**A.** 54.6 nM

**Q.** What about the ΔH ([4]; ITC) of the same compound?
**A.** -23.630 ± 0.3755 kcal/mol

**Q.** What about the ΔS ([4]; ITC, calculated using T of the experiment) of the same compound?
**A.** −46.8 cal/mol/deg

**Q.** And the “n (stoichiometry)” value ([4]; ITC, one kind of binding sites model)?
**A.** 0.874+/−0.00868 sites

**Q.** Which dose excreted [5] does the source give for `Cc1nc(-c2cnccn2)sc1C(=O)c1cnc(N[C@H]2O[C@H](CO)[C@@H](O)[C@H](O)[C@@H]2O)s1` [Compound 13 of WO 2014/016361, reference compound] here?
**A.** 52.4%

**Q.** For `CCCCCCCO[C@H]1O[C@H](CO)[C@@H](O)[C@H](O)[C@@H]1O` [HM, heptylmannose], which “inhibition of UTI89-induced hemagglutination (in words)” value [3] is on record?
**A.** potent inhibitors

**Q.** What about the “concentration required to observe a significant bacterial load reduction” value [6] of the same compound?
**A.** millimolar

**Q.** What about the “effect with AIEC in CEABAC 10 Crohn's disease model” value [7] of the same compound?
**A.** no effect
